{
  "source": "patent US7579338B2",
  "about": "“Methods and compositions for treating atheroma, tumors and other neoplastic tissues” (Pharmacyclics, Inc., priority 1999, dated 2009)",
  "key": {"[1]": {"tested_on": "MES-SA human uterine cells", "assay": "Proliferation of MES-SA cells with BSO and GdTex (MTT)", "format": "cell-based", "method": "The proliferation of MES-SA human uterine cells grown in McCoys 5A medium in the presence of a thiol depleting agent (BSO) or GdTex was used to assess the combined effect of these agents. The protocol outlined in the previous example was followed, with the following changes:\n1. The serially diluted compound was 200 μM BSO (Sigma Chemical, St. Louis, Mo., catalogue no. G1404).\n2. The cells were allowed to incubate in the presence of the two drugs for ca. 72 hours, prior to exchange of media and analysis using the colorimetric (MTT) assay, as described, e.g., in Example 5."}, "[2]": {"tested_on": "MES-SA human uterine cells", "assay": "Proliferation of BSO-treated MES-SA cells with Antimycins A and GdTex (MTT)", "format": "cell-based", "conditions": "BSO pre-treated cells, Antimycins A 0 to 20 μM, GdTex up to 100 μM, 20 h", "method": "The proliferation of MES-SA human uterine cells grown in McCoys SA medium in the presence of the thiol depleting agent BSO, with varying concentrations of a mitochondrial inhibitor (Antimycins A) and GdTex was used to assess the combined effect of these agents.\nMaterials and Methods. MES-SA cells were incubated at 37° C. and allowed to adhere to 96-well microtiter plates (2000 cells per well) overnight in 180 μL McCoys 5A containing 10% FBS (Gibco-BRL) and ca. 2% penicillin/streptomycin solution (Sigma). BSO (20 μL) was added to all wells followed by incubation for a further 24 h. The medium was exchanged and Antimycins A was serially diluted at concentrations ranging from 0 to 20 μM and after 0.5 hr metallotexaphyrin complex (up to 100 μM) was added to the test wells to give a final volume of 200 μL, followed by incubation for 20 h, whereupon the medium was exchanged and the plates were incubated an additional 52 h prior to analysis for viability using the MTT assay."}, "MES-SA cells": {"tested_on": "MES-SA cells", "assay": "Radiation sensitization by clonogenic assay", "format": "cell-based, human", "method": "The response of MES-SA cells to ionizing radiation was studied using a clonogenic assay format to confirm radiation sensitization potential.\nMaterials and Methods. MES-SA cells (200 to 5,000 cells per dish) were plated in T-25 flasks in 8.5 mL McCoys 5A containing 10% FBS (Gibco-BRL) and ca. 2% penicillin/streptomycin solution (Sigma) and incubated at 37° C. overnight. Stock BSO, ascorbate, GdTex (or a control 5% mannitol) solutions were prepared and 0.5 mL of each added to each flask to give a final volume of 10 mL (final concentrations of BSO, ascorbate and GdTex were 100 μM, 5 μM and 50 μM, respectively) and the cells incubated for 24 hr, whereupon the flasks were irradiated using a 137Cs irradiator (Model 40 Gammacell, J. L. Shepherd & Assoc., San Fernando, Calif.) at a dose rate of 0.805 Gy/min. Medium was removed immediately after irradiation, the cells were washed with fresh medium (5.0 mL) followed by the addition of fresh medium (10 mL) and incubation for an additional 11 days. Colonies were fixed and stained with 1% crystal violet and then counted."}},
  "data": [
    {"smiles": "CC(=O)[O-].CC(=O)[O-].CCc1c(CC)c2cc3nc(cnc4cc(OCCOCCOCCOC)c(OCCOCCOCCOC)cc4ncc4nc(cc1[n-]2)C(CCCO)=C4C)C(C)=C3CCCO.O.[Gd+3]", "note": "[GdTex, motexafin gadolinium]", "values": [
      {"measurement": "inhibitory effect of GdTex alone", "setting": "[1]; absence of BSO, ca. 72 hours, McCoys 5A medium", "result": "ca. 50%"},
      {"measurement": "combined effect of GdTex and BSO on cell growth", "setting": "[1]; increasing amounts of GdTex with BSO, data normalized for GdTex alone", "result": "increase in the cytotoxic dose response of the cells towards BSO"},
      {"measurement": "combined effect of GdTex and Antimycins A on cell growth", "setting": "[2]", "result": "increase in the cytotoxic dose response of the cells towards Antimycins A"},
      {"measurement": "radiation response, co-administration", "setting": "MES-SA cells; 50 μM GdTex and 100 μM BSO co-administered, 24 h prior to irradiation", "result": "radiation response significantly greater than the sum of the responses obtained from them individually"},
      {"measurement": "effect on clonogenic survival as a function of radiation, single agent", "setting": "MES-SA cells; 50 μM GdTex or 100 μM BSO for 24 h prior to irradiation, ascorbate-containing medium", "result": "relatively small effect on clonogenic survival"}
    ]}
  ]
}
